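Assay format: 96-well plates, 48-hour exposure. At the GI50, growth is halved. At the TGI there is no net growth.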
Assays:
Test in all cases: growth of human tumour cells (NCI), 48 h
[1] = system: U251 CNS
[2] = system: HS 578T breast
[3] = system: MDA-MB-231 breast
[4] = system: SR leukemia
[5] = system: BT-549 breast
[6] = system: NCI-H522 lung
[7] = system: T-47D breast
[8] = system: MDA-N
[9] = system: NCI-H226 lung
[10] = system: DLD-1 colon
[11] = system: SNB-78 CNS

| SMILES | TGI [1] [µM] | TGI [2] [µM] | TGI [3] [µM] | TGI [4] [µM] | TGI [5] [µM] | TGI [6] [µM] | TGI [7] [µM] | TGI [8] [µM] | TGI [9] [µM] | GI50 [1] [µM] | GI50 [2] [µM] | GI50 [9] [µM] | GI50 [6] [µM] | TGI [10] [µM] | TGI [11] [µM] | GI50 [11] [µM] | GI50 [3] [µM] | GI50 [4] [µM] | GI50 [5] [µM] | GI50 [7] [µM] |
| --- | --- | --- | --- | --- | --- | --- | --- | --- | --- | --- | --- | --- | --- | --- | --- | --- | --- | --- | --- | --- |
| COc1ccc(-c2nc3ncccn3c2-c2ccc(SC)cc2)cc1 | 29 | 7.7 | > 100 | 10.6 | 46.5 | 0.502 | – | – | – | – | – | – | – | – | – | – | – | – | – | – |
| COc1ccc2c(C(=O)c3cn(CCN4CCOCC4)c4ccccc34)cccc2c1 | > 100 | > 100 | > 100 | > 100 | > 100 | > 100 | > 100 | > 100 | > 100 | – | – | – | – | – | – | – | – | – | – | – |
| O=C(O)CCSC(CC1(c2ccc(Cl)cc2)NC(=O)CCS1)c1ccccc1 (stereo not given) | 42.2 | 33.4 | 46.6 | > 100 | 31.1 | 41.7 | > 60 | 31.8 | 40.8 | – | – | – | – | – | – | – | – | – | – | – |
| NCCc1cc(O)c(O)cc1O | 28.5 | > 100 | 44.6 | 31 | 70.6 | 3.44 | 73.2 | 47 | > 100 | 14 | 34.4 | 29.6 | 1.53 | – | – | – | – | – | – | – |
| O=P1(c2ccccc2)Nc2ccccc2SSc2ccccc2N1 | 30.4 | – | – | – | – | 29 | – | – | 33.4 | – | – | – | – | 31.8 | 56.3 | – | – | – | – | – |
| CSc1ccsc1-c1sc(-c2cc(SC)c(-c3sc(-c4cc(SC)c(-c5sccc5SC)s4)cc3SC)s2)cc1SC | > 100 | > 100 | > 100 | – | > 100 | > 100 | 82.8 | – | – | – | – | – | – | – | – | – | – | – | – | – |
| CN(C)CCCn1cnc2cc(Cl)c(Cl)cc21 | > 100 | > 100 | > 100 | > 100 | > 100 | > 100 | > 100 | > 100 | > 100 | – | – | – | – | – | – | – | – | – | – | – |
| CCCOC(=O)CNC(=O)OC(C)(C)C | > 100 | – | – | > 100 | – | > 100 | – | – | > 100 | – | – | – | – | > 100 | > 100 | – | – | – | – | – |
| COc1ccc(/C(Cl)=C(\C=O)c2ccc(OC)cc2)cc1 | > 100 | – | – | 78.8 | – | > 100 | – | – | > 100 | – | – | – | – | > 100 | > 100 | – | – | – | – | – |
| N=C1C(=N)c2ccccc2-c2ccccc21.N=C1C(=N)c2ccccc2-c2ccccc21.N=C1C(=N)c2ccccc2-c2ccccc21.[Cl-].[Ru+2] | 3.08 | – | – | 5.57 | – | 2.84 | – | – | – | – | – | – | – | – | 3.88 | 1.65 | – | – | – | – |
| COC(C)(C)OCCN1CCN(CCN2C3=C(C=C(C(C)=O)C3)Sc3ccccc32)CC1 | 35.2 | 36.5 | 52.4 | 33.2 | 44.1 | 33.2 | > 100 | 36.5 | 65.6 | – | – | – | – | – | – | – | – | – | – | – |
| C=CCN(C(=O)CNC(=O)C(F)(F)F)c1cc(OCc2ccccc2)c2c(c1)c(C)cn2S(=O)(=O)c1ccccc1 | > 100 | > 100 | > 100 | – | > 100 | > 100 | > 100 | – | > 100 | – | – | – | – | – | – | – | – | – | – | – |
| CC(=O)NNc1nc(-c2ccc([N+](=O)[O-])cc2)c(C#N)c(=O)n1C | 50 | 99.5 | 34.2 | > 100 | 23 | 45.6 | > 100 | > 100 | – | – | – | – | – | – | – | – | – | – | – | – |
| Cc1cc(/N=C/c2ccc(F)cc2)n(-c2ccccc2)n1 | > 100 | > 100 | > 100 | > 100 | > 100 | > 100 | > 100 | > 100 | > 100 | – | – | – | – | – | – | – | – | – | – | – |
| NCCCn1c2c(c3ccc([N+](=O)[O-])cc3c1=O)C(=O)c1ccccc1-2 | 0.0534 | 2.29 | 0.472 | > 50 | 0.881 | > 50 | – | – | 0.118 | 0.005 | 0.657 | 0.0151 | 0.462 | – | – | – | 0.136 | 0.005 | 0.235 | – |
| COc1cc(C2CC(c3cccc(Nc4ccncc4)c3)=NN2c2ccc(Cl)cc2)cc(OC)c1OC (stereo not given) | – | – | – | – | – | – | 4.23 | – | 3.59 | – | – | 1.66 | – | – | – | – | – | – | – | 1.79 |

| SMILES | TGI [1] [µM] | TGI [2] [µM] | TGI [3] [µM] | TGI [4] [µM] | TGI [5] [µM] | TGI [6] [µM] | TGI [7] [µM] | TGI [8] [µM] | TGI [9] [µM] | GI50 [1] [µM] | GI50 [2] [µM] | GI50 [9] [µM] | GI50 [6] [µM] | TGI [10] [µM] | TGI [11] [µM] | GI50 [11] [µM] | GI50 [3] [µM] | GI50 [4] [µM] | GI50 [5] [µM] | GI50 [7] [µM] |
| --- | --- | --- | --- | --- | --- | --- | --- | --- | --- | --- | --- | --- | --- | --- | --- | --- | --- | --- | --- | --- |
| O=C(Nc1ccc([N+](=O)[O-])cc1[N+](=O)[O-])C(=O)C(C(=O)c1ccc2ccccc2c1)C1OC(=O)c2ccccc21 (stereo not given) | 16.9 | – | – | 16.7 | – | 22.8 | – | – | 9.48 | – | – | – | – | 81.4 | 82.5 | – | – | – | – | – |
| CN(C)CCNC(=O)c1cccc2ccc(-c3ccc(F)cc3)nc12 | 22.3 | – | – | – | – | 16.9 | – | – | 11.6 | – | – | – | – | 17.9 | 31.4 | – | – | – | – | – |
| Nc1n[nH]c(=O)c2c1c(I)cn2C1OC(CO)C(O)C1O (stereo not given) | 4.19 | – | – | 1.33 | – | – | – | – | 7.6 | – | – | – | – | > 100 | 6.8 | – | – | – | – | – |
| Oc1cn(-c2ccc(Cl)cc2)nc1-c1n[nH]c(=S)n1-c1ccccc1 | 30.4 | 55.1 | > 100 | 94 | – | 19.5 | > 100 | – | 59.8 | – | – | – | – | – | – | – | – | – | – | – |
| CC(C)(C)[Si](C)(C)Oc1ccc(C2CNC(=O)C23CCC(=O)N3Cc2ccccc2)cc1 (stereo not given) | 36.2 | 21.5 | – | > 100 | 33.1 | 29.2 | 63 | 27.3 | 44.8 | – | – | – | – | – | – | – | – | – | – | – |
| Cc1cc2c(cc1C(=O)c1ccc(N)cc1)OCO2 | > 100 | > 100 | > 100 | > 100 | > 100 | 54.4 | > 100 | 35.1 | – | – | – | – | – | – | – | – | – | – | – | – |
| COc1cc(/C=C/C(=O)Oc2ccc(NC(C)=O)cc2)ccc1C(=O)O/C=C/c1ccccc1 | > 100 | – | – | – | – | > 100 | – | – | > 100 | – | – | – | – | > 100 | > 100 | – | – | – | – | – |
| CC(=O)O[C@H]1CC[C@@]2(C)C(=CC[C@H]3[C@@H]4C/C(=C\c5ccc(N(C)C)cc5)[C@H](OC(C)=O)[C@@]4(C)CC[C@@H]32)C1 | 19.4 | 9.36 | 29.4 | > 100 | 33.4 | – | 76.8 | 36 | 33.4 | – | – | – | – | – | – | – | – | – | – | – |
| COc1ccc(C2=C3SC=c4ccccc4=C3ON=C2c2ccccc2)cc1 | > 100 | > 100 | > 100 | > 100 | > 100 | > 100 | > 100 | – | > 100 | – | – | – | – | – | – | – | – | – | – | – |
| CCC(=O)O[C@H]1CC[C@H]2[C@@H]3CCC4=C/C(=N/OC(=O)c5cccc6cc7ccccc7nc56)CC[C@]4(C)[C@H]3CC[C@]12C | > 100 | > 100 | > 100 | > 100 | > 100 | > 100 | 67.6 | > 100 | > 100 | – | – | – | – | – | – | – | – | – | – | – |
| O=C1NI(C#Cc2ccccc2)c2ccccc21 | > 100 | > 100 | > 100 | > 100 | > 100 | – | > 100 | > 100 | > 100 | – | – | – | – | – | – | – | – | – | – | – |
| Cc1c2cccc-2c(OCCO)cc2c3ccccc3n(C)c12 | 5.84 | 7.15 | 10 | 6.12 | 13.4 | 4.8 | > 100 | 16.1 | 24.2 | – | – | – | – | – | – | – | – | – | – | – |
| C[C@H]1C(=O)O[C@@H]2CCN3CC=C(COC(=O)[C@](C)(O)[C@@]1(C)O)[C@H]23 | > 100 | > 100 | > 100 | – | > 100 | > 100 | > 100 | > 100 | > 100 | – | – | – | – | – | – | – | – | – | – | – |
| Nc1ccccc1N=Cc1cc2cc([N+](=O)[O-])ccc2s1 | 28.2 | 41.8 | 39.2 | > 100 | 52.9 | > 100 | 20.8 | > 100 | – | – | – | – | – | – | – | – | – | – | – | – |
| CCc1nc(N)nc(N)c1-c1ccc([N+](C)(C)C)cc1 | > 100 | > 100 | > 100 | > 100 | > 100 | > 100 | > 100 | > 100 | > 100 | – | – | – | – | – | – | – | – | – | – | – |
| FC(F)(F)c1ccc2c(c1)nc(-c1ccc(Cl)cc1)n2CC1CCCN2CCCCC12 (stereo not given) | 27.3 | 36.3 | 20.3 | 33.8 | 27.9 | 26.5 | 39.8 | 29.9 | 31.4 | – | – | – | – | – | – | – | – | – | – | – |

Reference: PubChem BioAssay (NCI)
